Where two headings read alike, the source gives them in different places. Some results are limits rather than exact numbers.

The assay addresses recombinant eIF4E (Homo sapiens (Human), UniProt P06730). Description: Fluorescence polarization competition assay for eIF4E binding potency. The essentials: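 Competition of test compound against 20 nM EDA-m^7GDP-ATTO-550 for 75 nM recombinant eIF4E, pre-incubated 5 min, in 20 mM Tris pH 7.5, 100 mM NaCl, 1 mM DTT, 0.02% Tween-20, 1% DMSO. Equilibrated 30 min at room temperature, dark; fluorescence polarization read. IC50 from 8-point, 3-fold dilution series.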
Background: Fluorescence polarisation rises when a labelled molecule tumbles more slowly, as on binding a larger partner.

Where [1] appears, read: inhibition of eIF4E/EDA-m7GDP-ATTO-550 binding, calculated IC50 values, Table 4B, read-out: IC50.
The mark [2] stands for this setting: fluorescence polarization competition, 75 nM recombinant eIF4E, 20 nM EDA-m7GDP-ATTO-550, IC50 class, read-out: elF4E FP.
[3] abbreviates: inhibition of eIF4E/EDA-m7GDP-ATTO-550 binding by 50%, Table 4B calculated values, read-out: IC50.

Chain of recombinant eIF4E (P06730 whole entry): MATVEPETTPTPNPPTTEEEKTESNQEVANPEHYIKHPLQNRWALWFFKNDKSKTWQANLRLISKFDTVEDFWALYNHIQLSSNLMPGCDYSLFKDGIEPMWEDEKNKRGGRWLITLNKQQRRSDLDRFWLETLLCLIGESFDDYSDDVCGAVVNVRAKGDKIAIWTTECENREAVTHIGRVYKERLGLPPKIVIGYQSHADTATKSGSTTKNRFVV

With `Cc1nc2cnc(C#CC3(N(C)C)CC3)c(C#N)c2c(=O)n1CCOc1ccc(Cl)cc1-c1ccnc2c(C(=O)O)csc12` [compound 1329], the IC50 under setting [1] is 35.2 nM. The same measure, in the same setting: the same measure for `Cc1nc2cnc(N3CCN(CCCF)CC3)c(C#N)c2c(=O)n1CC#Cc1ccc(Cl)cc1-c1ccnc2c(C(=O)O)csc12` [compound 1457]: 18 nM; for `Cc1nc2cnc(N3CCN(CCS(C)(=O)=O)CC3)c(C#N)c2c(=O)n1CCOc1ccc(Cl)cc1-c1ccnc2c(C(=O)O)csc12` [compound 1339]: 36.4 nM; for `Cc1nc2cnc(N3CCN(CCF)CC3)c(C#N)c2c(=O)n1CC#Cc1ccc(Cl)cc1-c1ccnc2c(C(=O)NS(C)(=O)=O)csc12` [compound 1488]: 12.3 nM.

Regarding `Cc1nc2cnc(N3CCN(CCC(F)(F)F)CC3)c(C#N)c2c(=O)n1CCOc1ccc(Cl)cc1-c1ccnc2c(C(=O)O)csc12` [compound 1308], the IC50 under setting [1] is 41.5 nM. Turning to `Cc1c(C(F)(F)F)cc2nc(C)n(CCOc3ccc(Cl)cc3-c3cn(C)c(=O)c4c(C(=O)O)csc34)c(=O)c2c1C#N` [compound 753], the IC50 by setting is: under setting [2], less than 50 nM; under setting [3], 13.8 nM. On the same counts, the results for `Cc1nc2cc(C(F)(F)F)cc(C#N)c2c(=O)n1CCOc1ccc(Cl)cc1-c1cccc(C(=O)O)c1` [compound 51] are less than 50 nM and 21.3 nM. The like results for `Cc1c(F)c2cc(C#N)cc(C#N)c2c(=O)n1CCOc1ccc(Cl)cc1-c1ccnc2c(C(=O)O)csc12` [compound 273] were, in that order, less than 50 nM and 30.2 nM. Regarding `Cc1ncc(C#N)c2c(=O)n(CCOc3ccc(Cl)cc3-c3ccnc4c(C(=O)O)csc34)c(C)nc12` [compound 674], under setting [2], the IC50 is less than 50 nM. Consider `Cc1nc2cc(CN(C)CCF)c(OC(F)F)c(C#N)c2c(=O)n1CCOc1ccc(Cl)cc1-c1ccnc2c(C(=O)O)csc12` [compound 1278], for which the IC50 under setting [1] is 10.6 nM. For the compound `Cc1cnc(-c2nc3c(=O)n(CCOc4ccc(Cl)cc4-c4cc(C)nc5c(C(=O)O)csc45)c(C)nc3cc2C(F)(F)F)cn1` [compound 1018], the IC50 is less than 50 nM under setting [2] and 6.71 nM under setting [3]. Regarding `CNc1nc2c(F)c(F)cc(CCOc3ccc(Cl)cc3-c3cccc(C(=O)O)c3)c2c(=O)[nH]1` [compound 172], the IC50 was 50 to 1000 nM under setting [2] and 92.3 nM under setting [3]. For `COc1c(C)n(CCOc2ccc(Cl)cc2-c2ccnc3c(C(=O)O)csc23)c(=O)c2c(C#N)cc(C(F)(F)F)cc12` [compound 309], the IC50 under setting [2] was 50 to 1000 nM and the IC50 under setting [3] is 52.5 nM. As for `Cc1cc(-c2cc(Cl)ccc2OCCn2c(C)nc3cc(C(F)(F)F)cc(C#N)c3c2=O)c2scc(C(=O)O)c2c1F` [compound 333], the IC50 under setting [3] was 24.9 nM. Consider `Cc1nc2cnc(N(C)C3CCN(CC(=O)C4CC4)CC3)c(C#N)c2c(=O)n1CCOc1ccc(Cl)cc1-c1ccnc2c(C(=O)O)csc12` [compound 1128], for which the IC50 is, setting by setting: under setting [2], less than 50 nM; under setting [3], 23.9 nM. Turning to `Cc1cc(-c2cc(Cl)ccc2OCCn2c(C)nc3cc(S(C)(=O)=O)c(N4CCN(C)CC4)c(C#N)c3c2=O)c2sc(C)c(C(=O)O)c2n1` [compound 1150], the IC50 is, setting by setting: under setting [2], less than 50 nM; under setting [3], 4.6 nM. On the same counts, the results for `Cc1nc2ccc(C(F)F)c(C#N)c2c(=O)n1CCOc1ccc(Cl)cc1-c1ccnc2c(C(=O)O)csc12` [compound 160] are less than 50 nM and 8.83 nM. The like results for `Cc1cc(-c2cc(Cl)ccc2OCCn2c(C)nc3cnc(C4(C(F)(F)F)CC4)c(C#N)c3c2=O)c2scc(C(=O)O)c2n1` [compound 839] were, in that order, less than 50 nM and 29.6 nM. As for `Cc1nc2cnc(N(C)C3CCN([C@H]4C[C@H](F)C4)CC3)c(C#N)c2c(=O)n1CC#Cc1ccc(Cl)cc1-c1ccnc2c(C(=O)NS(=O)(=O)c3cccnc3)csc12` [compound 1794], the IC50 under setting [1] was 9.28 nM. The same measure, in the same setting: the same measure for `Cc1nc2cnc(N(C)C3C[C@@H]4C[C@H]3CN4CC(C)(F)F)c(C#N)c2c(=O)n1CC#Cc1ccc(Cl)cc1-c1ccnc2c(C(=O)O)csc12` (stereo partly shown) [compound 1545]: 27.5 nM; for `Cc1nc2cnc(N(C)CC3CN(CC(F)F)C3)c(C#N)c2c(=O)n1CC#Cc1ccc(Cl)cc1-c1ccnc2c(C(=O)O)csc12` [compound 1542]: 18.6 nM. Turning to `C#Cc1c(-c2cc(Cl)ccc2OCCn2c(C(F)F)nc3cccc(C#N)c3c2=O)ccnc1C(=O)O` [compound 163], the IC50 was 50 to 1000 nM under setting [2] and 95.5 nM under setting [3]. The like results for `Cc1cc(-c2cc(Cl)ccc2OCCn2c(C)nc3c(C(F)(F)F)ncc(C#N)c3c2=O)c2scc(C(=O)O)c2n1` [compound 340] were, in that order, less than 50 nM and 5.01 nM. `CCc1cc(-c2cc(Cl)ccc2OCCn2c(C)nc3cc(C(F)(F)F)c(CC4CCNCC4)c(C#N)c3c2=O)c2scc(C(=O)O)c2n1` [compound 1276]: the IC50 under setting [1] is 13.5 nM. Same read-out and setting: the same measure for `Cc1nc2cnc(N3CCC(N4CC(F)C4)CC3)c(C#N)c2c(=O)n1CC#Cc1ccc(Cl)cc1-c1ccnc2c(C(=O)O)csc12` [compound 1564]: 10.6 nM.

Take `Cc1nc2cc(C(F)(F)F)cc(C#N)c2c(=O)n1CCOc1ccc(Cl)cc1-c1ccnc2c(C(C)(C)O)csc12` [compound 352]: the IC50 is more than 1000 nM under setting [2] and 1270 nM under setting [3]. On the same counts, the results for `Cc1cc(-c2cc(Cl)ccc2OCCn2c(C)nc3cnc(-c4cccc(F)c4)c(C#N)c3c2=O)c2scc(C(=O)O)c2n1` [compound 942] are less than 50 nM and 6.93 nM. In the case of `CCN(c1ncc2nc(C)n(CC#Cc3ccc(Cl)cc3-c3ccnc4c(C(=O)NS(=O)(=O)C5COC5)csc34)c(=O)c2c1C#N)C1CCN([C@H]2C[C@H](OC(F)F)C2)CC1` [compound 1768], the IC50 under setting [1] was 31.3 nM. Same read-out and setting: the same measure for `COCC1(N2CCN(c3ncc4nc(C)n(CC#Cc5ccc(Cl)cc5-c5ccnc6c(C(=O)O)csc56)c(=O)c4c3C#N)CC2)CC1` [compound 1465]: 23.6 nM.

Consider `O=C(O)c1cccc(-c2cc(Cl)ccc2OCCn2c(Nc3ccccc3)nc3c(O)nccc3c2=O)c1` [compound 2000], for which the IC50 under setting [1] was 18200 nM. The same measure, in the same setting: the same measure for `Cc1sc2c(-c3cc(Cl)ccc3C#CCn3c(C)nc4cc(C(F)(F)F)c(N5CCN(C)CC5)c(C#N)c4c3=O)ccnc2c1C(=O)O` [compound 1271]: 13.1 nM. Consider `Cc1ccc(-c2c(C(F)(F)F)cc3nc(C)n(CCOc4ccc(Cl)cc4-c4cc(C)nc5c(C(=O)O)csc45)c(=O)c3c2C#N)nn1` [compound 967], for which the IC50 was less than 50 nM under setting [2] and 12.2 nM under setting [3].

`Cc1nc2ccc(Cl)c(C#N)c2c(=O)n1CCOc1ccc(Cl)cc1-c1cccc(C(=O)O)c1` [compound 141]: the IC50 is less than 50 nM under setting [2] and 44.2 nM under setting [3]. As for `Cc1cc(-c2cc(Cl)ccc2OCCn2c(C)nc3c(C)nc(-c4ccccc4C(F)(F)F)c(C#N)c3c2=O)c2scc(C(=O)O)c2n1` [compound 924], the IC50 runs as follows: under setting [2], less than 50 nM; under setting [3], 14.3 nM.

Take `Cc1cc(-c2cc(Cl)ccc2OCCn2c(C)nc3cc(C(F)(F)F)c(-c4cn(C)cn4)c(C#N)c3c2=O)c2scc(C(=O)O)c2n1` [compound 907]: the IC50 is, setting by setting: under setting [2], less than 50 nM; under setting [3], 7.76 nM. For the compound `CCc1cc(-c2cc(Cl)ccc2OCCn2c(C)nc3cc(CN(C)C)c(OC(F)F)c(C#N)c3c2=O)c2scc(C(=O)O)c2n1` [compound 639], under setting [2], the IC50 is less than 50 nM.

For the compound `Cc1cc(-c2cc(Cl)ccc2OCCn2c(C)nc3cc(C(F)(F)F)c(-c4nc(C)ncc4F)c(C#N)c3c2=O)c2scc(C(=O)O)c2n1` [compound 964], the IC50 by setting is: under setting [2], less than 50 nM; under setting [3], 3.32 nM. Consider `Cc1nc2cnc(N(C)C3CCN(C4CC(F)(F)C4)CC3)c(C#N)c2c(=O)n1CC#Cc1ccc(Cl)cc1-c1ccnc2c(C(=O)NS(=O)(=O)CC(C)(C)C#N)csc12` [compound 1827], for which the IC50 under setting [1] was 14.8 nM. Still for that read-out and setting: the same measure for `Cc1nc2cnc(N(C)C3CCN(CC(F)(F)F)CC3)c(C#N)c2c(=O)n1CC#Cc1ccc(Cl)cc1-c1ccnc2c(C(=O)NS(=O)(=O)c3ccnn3C)csc12` [compound 1668]: 5.67 nM. Consider `Cc1c(C(F)(F)F)c2cc(C(F)(F)F)cc(C#N)c2c(=O)n1CCOc1ccc(Cl)cc1-c1ccnc2c(C(=O)O)csc12` [compound 268], for which the IC50 was less than 50 nM under setting [2] and 34.1 nM under setting [3]. The like results for `Cc1nc2cc(C(F)(F)F)cc([N+](=O)[O-])c2c(=O)n1CCOc1ccc(Cl)cc1-c1ccnc2c(C(=O)O)csc12` [compound 271] were, in that order, less than 50 nM and 13.2 nM. For `Cc1nc2cnc(N3CC4(CCN4C4CC4)C3)c(C#N)c2c(=O)n1CC#Cc1ccc(Cl)cc1-c1ccnc2c(C(=O)O)csc12` [compound 1525], the IC50 under setting [1] is 15.1 nM. On to `Cc1cc(-c2cc(Cl)ccc2OCCn2c(C)nc3cnc(N4CCC(O)C4)c(C#N)c3c2=O)c2scc(C(=O)O)c2n1` (stereo not shown) [compound 1056], for which the IC50 is, setting by setting: under setting [2], less than 50 nM; under setting [3], 16.1 nM. On to `Cc1nc2cnc(C3CC3)c(C#N)c2c(=O)n1CCOc1ccc(Cl)cc1Sc1cccc(C(=O)O)n1` [compound 940], for which the IC50 was 50 to 1000 nM under setting [2] and 470 nM under setting [3]. The like results for `Cc1nc2cc(CN(C)C)c(OC(F)F)c(C#N)c2c(=O)n1CCOc1ccc(Cl)cc1-c1cccc(C(=O)O)c1` [compound 806] were, in that order, less than 50 nM and 3.58 nM. On the same counts, the results for `CCN(CC)Cc1c(C(F)(F)F)cc2nc(C)n(CCOc3ccc(Cl)cc3-c3ccnc4c(C(=O)O)csc34)c(=O)c2c1C#N` [compound 527] are less than 50 nM and 24.8 nM. The like results for `Cc1nc2cc(C(C)(F)F)cc(C#N)c2c(=O)n1CCOc1ccc(Cl)cc1-c1ccnc2c(C(=O)O)csc12` [compound 217] were, in that order, 50 to 1000 nM and 55.4 nM.

The values above are taken from patent US11286268B1, “EIF4E-inhibiting compounds and methods” (EFFECTOR THERAPEUTICS, INC., priority 2019, dated 2022).
